ChEMBL document CHEMBL5036347, “Design of the naphthyl-diarylpyrimidines as potent non-nucleoside reverse transcriptase inhibitors (NNRTIs) via structure-based extension into the entrance channel” (Eur J Med Chem, 2021)
pEC50, pIC50: −log10 of the molar value. Values after ≈ are worked out from the molar mass of the structure shown.

Experiments:
[1] = tested on: Human immunodeficiency virus 1; test: Antiviral activity against HIV1 harboring reverse transcriptase K103N mutant infected in human MT4 cells assessed as protection against virus-induced cytopathic effect incubated for 5 days by MTT assay; type: functional, organism-based; conditions: Human immunodeficiency virus 1, MT4, 120 h
[2] = Resistance fold, ratio of EC50 for HIV1 harboring reverse transcriptase Y188L mutant […] to EC50 for wild type HIV1 […]; type: functional
[3] = Resistance fold, ratio of EC50 for HIV1 harboring reverse transcriptase E138K mutant […] to EC50 for wild type HIV1 […]; type: functional
[4] = tested on: Human immunodeficiency virus 1; test: Antiviral activity against HIV1 harboring reverse transcriptase L100I mutant infected in human MT4 cells assessed as protection against virus-induced cytopathic effect incubated for 5 days by MTT assay; type: functional, organism-based; conditions: Human immunodeficiency virus 1, MT4, 120 h
[5] = tested on: Human immunodeficiency virus 1; test: Antiviral activity against HIV1 harboring reverse transcriptase F227L/V106A mutant infected in human MT4 cells assessed as protection against virus-induced cytopathic effect incubated for 5 days by MTT assay; type: functional, organism-based; conditions: Human immunodeficiency virus 1, MT4, 120 h
[6] = tested on: Human immunodeficiency virus 2; test: Anti-HIV activity against HIV2 ROD infected in human MT4 cells assessed as reduction in virus-induced cytopathic effect incubated for 5 days by MTT assay; type: functional, organism-based; conditions: Human immunodeficiency virus 2, ROD, MT4, 120 h
[7] = Selectivity index, ratio of CC50 for cytotoxicity against human MT4 cells to EC50 of Anti-HIV activity against HIV-1 IIIB infected in human MT4; type: toxicity, cell-based; conditions: read-out: Selectivity Index
[8] = Resistance fold, ratio of EC50 for HIV1 harboring reverse transcriptase K103N/Y181C double mutant […] to EC50 for wild type HIV1 […]; type: functional
[9] = tested on: Human immunodeficiency virus 1; test: Antiviral activity against HIV1 harboring reverse transcriptase E138K mutant infected in human MT4 cells assessed as protection against virus-induced cytopathic effect incubated for 5 days by MTT assay; type: functional, organism-based; conditions: Human immunodeficiency virus 1, MT4, 120 h
[10] = Resistance fold, ratio of EC50 for HIV1 harboring reverse transcriptase Y181C mutant […] to EC50 for wild type HIV1 […]; type: functional
[11] = tested on: Human immunodeficiency virus 1; test: Antiviral activity against HIV1 harboring reverse transcriptase Y188L mutant infected in human MT4 cells assessed as protection against virus-induced cytopathic effect incubated for 5 days by MTT assay; type: functional, organism-based; conditions: Human immunodeficiency virus 1, MT4, 120 h
[12] = Resistance fold, ratio of EC50 for HIV1 harboring reverse transcriptase F227L/V106A double mutant […] to EC50 for wild type HIV1 […]; type: functional
[13] = biological target: Human immunodeficiency virus type 1 reverse transcriptase (Human immunodeficiency virus 1, UniProt Q72547); test: Inhibition of wild type HIV1 reverse transcriptase using oligo(dT)16 as primer measured after 40 mins by picogreen-dye based spectrofluorimetric analysis
[14] = Resistance fold, ratio of EC50 for HIV1 harboring reverse transcriptase K103N mutant […] to EC50 for wild type HIV1 […]; type: functional
[15] = Resistance fold, ratio of EC50 for HIV1 harboring reverse transcriptase L100I mutant […] to EC50 for wild type HIV1 […]; type: functional
[16] = tested on: Human immunodeficiency virus 1; test: Antiviral activity against HIV1 harboring reverse transcriptase Y181C mutant infected in human MT4 cells assessed as protection against virus-induced cytopathic effect incubated for 5 days by MTT assay; type: functional, organism-based; conditions: Human immunodeficiency virus 1, MT4, 120 h
[17] = tested on: Human immunodeficiency virus 1; test: Antiviral activity against HIV1 harboring reverse transcriptase K103N/Y181C double mutant infected in human MT4 cells assessed as protection against virus-induced cytopathic effect incubated for 5 days by MTT assay; type: functional, organism-based; conditions: Human immunodeficiency virus 1, MT4, 120 h
[18] = tested on: Human immunodeficiency virus 1; test: Anti-HIV activity against HIV-1 IIIB infected in human MT4 cells assessed as reduction in virus-induced cytopathic effect incubated for 5 days by MTT assay; type: functional, organism-based; conditions: Human immunodeficiency virus 1, IIIB, MT4, 120 h
MT4 = test: (§1) Cytotoxicity against human MT4 cells assessed as reduction in cell viability incubated for 5 days by MTT assay; type: cell-based; conditions: Homo sapiens, MT4, 120 h
[19] = biological target: Human immunodeficiency virus type 1 reverse transcriptase (Human immunodeficiency virus 1, UniProt Q72547, L100I); test: Inhibition of HIV1 reverse transcriptase L100I mutant using oligo(dT)16 as primer measured after 40 mins by picogreen-dye based spectrofluorimetric analysis
[20] = Water solubility of compound at pH 2 at 0.1 to 10 mg by HPLC-UV analysis; type: physicochemical; conditions: dose 0.1-10 mg
[21] = Water solubility of compound at pH 7 at 0.1 to 10 mg by HPLC-UV analysis; type: physicochemical; conditions: dose 0.1-10 mg
[22] = biological target: Human immunodeficiency virus type 1 reverse transcriptase (Human immunodeficiency virus 1, UniProt Q72547, Y181C); test: Inhibition of HIV1 reverse transcriptase Y181C mutant using oligo(dT)16 as primer measured after 40 mins by picogreen-dye based spectrofluorimetric analysis
[23] = Water solubility of compound at pH 7.4 at 0.1 to 10 mg by HPLC-UV analysis; type: physicochemical; conditions: dose 0.1-10 mg
[24] = biological target: Human immunodeficiency virus type 1 reverse transcriptase (Human immunodeficiency virus 1, UniProt Q72547, E138K); test: Inhibition of HIV1 reverse transcriptase E138K mutant using oligo(dT)16 as primer measured after 40 mins by picogreen-dye based spectrofluorimetric analysis
[25] = biological target: Human immunodeficiency virus type 1 reverse transcriptase (Human immunodeficiency virus 1, UniProt Q72547, K103N/Y181C); test: Inhibition of HIV1 reverse transcriptase K103N/Y181C double mutant using oligo(dT)16 as primer measured after 40 mins by picogreen-dye based spectrofluorimetric analysis
[26] = biological target: Human immunodeficiency virus type 1 reverse transcriptase (Human immunodeficiency virus 1, UniProt Q72547, F227L/V106A); test: Inhibition of HIV1 reverse transcriptase F227L/V106A double mutant using oligo(dT)16 as primer measured after 40 mins by picogreen-dye based spectrofluorimetric analysis
[27] = biological target: Human immunodeficiency virus type 1 reverse transcriptase (Human immunodeficiency virus 1, UniProt Q72547, K103N); test: Inhibition of HIV1 reverse transcriptase K103N mutant using oligo(dT)16 as primer measured after 40 mins by picogreen-dye based spectrofluorimetric analysis
[28] = biological target: Human immunodeficiency virus type 1 reverse transcriptase (Human immunodeficiency virus 1, UniProt Q72547, Y188L); test: Inhibition of HIV1 reverse transcriptase Y188L mutant using oligo(dT)16 as primer measured after 40 mins by picogreen-dye based spectrofluorimetric analysis
[29] = as §1; type: cell-based; conditions: human, MT4 cells; time 5 day

| SMILES | pEC50 [1] | Ratio EC50 [2] | Ratio EC50 [3] | pEC50 [4] | pEC50 [5] | pEC50 [6] | selectivity ratio [7] | Ratio EC50 [8] | pEC50 [9] | Ratio EC50 [10] | pEC50 [11] | Ratio EC50 [12] | pIC50 [13] | Ratio EC50 [14] | Ratio EC50 [15] | pEC50 [16] | pEC50 [17] | pEC50 [18] | pIC50 [19] | CC50 at 120 h [29] [µM] | further results |
| --- | --- | --- | --- | --- | --- | --- | --- | --- | --- | --- | --- | --- | --- | --- | --- | --- | --- | --- | --- | --- | --- |
| CCC(C)CNc1cc(Oc2c(OC)cc3cc(C#N)ccc3c2OC)nc(Nc2ccc(C#N)cc2)n1 (stereo not drawn) | 7.22 | 89 | 4 | 5.61 | < 3.00 | < 3.00 | > 3550 | 216 | 6.55 | 10 | 5.21 | >14450 | 6.57 | 1 | 36 | 6.17 | 4.83 | 7.16 |  |  | pIC50 (MT4): < 3.90 |
| CCNc1cc(Oc2c(OC)cc3cc(C#N)ccc3c2OC)nc(Nc2ccc(C#N)cc2)n1 | 8.06 | 64 | 2 | 6.89 | 5.38 | < 3.00 | > 30500 | 46 | 7.80 | 7 | 6.24 | 463 | 7.22 | 1 | 14 | 7.21 | 6.38 | 8.04 | 5.88 | > 125 | solubility [20]: 1 µg/mL (≈ 2.14 µM); solubility [21]: < 1 µg/mL; pIC50 [22]: 6.80; solubility [23]: 9 µg/mL (≈ 19.3 µM); pIC50 [24]: 7.05; pIC50 [25]: 6.37; pIC50 [26]: 5.94; pIC50 [27]: 6.92; pIC50 [28]: 5.63 |
| COc1cc2cc(C#N)ccc2c(OC)c1Oc1cc(N2CCC(O)C2)nc(Nc2ccc(C#N)cc2)n1 (stereo not drawn) | 7.72 | 38 | 4 | 6.92 | 5.88 | 5.04 | 22800 | 76 | 7.35 | 4 | 6.40 | 124 | 7.00 | 2 | 11 | 7.32 | 6.09 | 7.96 | 6.31 | > 125 | solubility [20]: 1 µg/mL (≈ 1.97 µM); solubility [21]: < 1 µg/mL; pIC50 [22]: 6.74; solubility [23]: 2 µg/mL (≈ 3.93 µM); pIC50 [24]: 6.82; pIC50 [25]: 6.35; pIC50 [26]: 6.06; pIC50 [27]: 6.62; pIC50 [28]: 5.97 |
| COc1cc2cc(C#N)ccc2c(OC)c1Oc1cc(N)nc(Nc2ccc(C#N)cc2)n1 | 8.28 | 33 | 3 | 7.42 | 6.48 | 5.14 | 3500 | 6 | 7.85 | 3 | 6.75 | 61 | 7.70 | 1 | 7 | 7.80 | 7.52 | 8.27 | 7.15 | 19 | solubility [20]: < 1 µg/mL; solubility [21]: < 1 µg/mL; pIC50 [22]: 7.40; solubility [23]: 1 µg/mL (≈ 2.28 µM); pIC50 [24]: 7.70; pIC50 [25]: 7.22; pIC50 [26]: 6.92; pIC50 [27]: 7.40; pIC50 [28]: 6.82 |
| CNc1cc(Oc2c(OC)cc3cc(C#N)ccc3c2OC)nc(Nc2ccc(C#N)cc2)n1 | 7.34 | 56 | 6 | 6.29 | 4.97 | 4.28 | 4080 | 37 | 6.60 | 8 | 5.66 | 271 | 6.62 | 1 | 13 | 6.51 | 5.84 | 7.41 |  | 239 |  |
| COc1cc2cc(C#N)ccc2c(OC)c1Oc1cc(NCC2CCOC2)nc(Nc2ccc(C#N)cc2)n1 (stereo not drawn) | 7.80 | 35 | 2 | 6.43 | 5.11 | < 3.00 | > 12500 | 36 | 7.33 | 9 | 6.17 | 410 | 7.22 | 1 | 22 | 6.77 | 6.17 | 7.72 |  | > 125 |  |
| COc1cc2cc(C#N)ccc2c(OC)c1Oc1cc(NC2CCC2)nc(Nc2ccc(C#N)cc2)n1 |  | 68 | 5 | 5.99 | 3.84 | < 3.00 | > 7040 | 86 | 7.08 | 9 | 5.61 | 3981 | 6.96 | 1 | 28 | 6.48 | 5.50 | 7.43 |  | > 125 | pIC50 [1]: 7.36 |
